{
  "source": "paper PMC6509344",
  "about": "“Novel CMKLR1 Inhibitors for Application in Demyelinating Disease” (Scientific Reports, 2019)",
  "key": {"Cyp2D6": {"system": "Cyp2D6", "set-up": "method as in PubChem BioAssay ID 1461", "details": "ref PubChem BioAssay ID 1461; cited from earlier work"}, "[1]": {"system": "Salmonella typhimurium (TA100)", "assay": "Ames test for genotoxicity (AMES-MOD ISO)", "details": "concentrations up to at least 10 uM", "method": "Ames test was completed using the AMES-MOD ISO 96 well format assay, Version 1.1 (Environmental Bio-Detection Products Inc.) according to manufacturer’s instructions. In brief, Salmonella typhimurium (TA100) bacterial strain was exposed to the indicated doses of sodium azide (positive control) or α-NETA solubilized in DMSO (1% DMSO/well, 48 wells/dose completed in triplicate). After 2 h incubation the cells were diluted and cultured in media lacking histidine but containing pH indicator to identify revertant cell growth. After 3 days of incubation at 37 °C, the number of wells containing revertant cells was counted per dose."}, "CMKLR1": {"biological_target": "T1, CMKLR1 (Homo sapiens, UniProt Q99788)", "T1 construct": "host or cells: CHO-K1 (PathHunter CMKLR1 β-Arrestin cells)", "T1 sequence (Q99788 1-373)": "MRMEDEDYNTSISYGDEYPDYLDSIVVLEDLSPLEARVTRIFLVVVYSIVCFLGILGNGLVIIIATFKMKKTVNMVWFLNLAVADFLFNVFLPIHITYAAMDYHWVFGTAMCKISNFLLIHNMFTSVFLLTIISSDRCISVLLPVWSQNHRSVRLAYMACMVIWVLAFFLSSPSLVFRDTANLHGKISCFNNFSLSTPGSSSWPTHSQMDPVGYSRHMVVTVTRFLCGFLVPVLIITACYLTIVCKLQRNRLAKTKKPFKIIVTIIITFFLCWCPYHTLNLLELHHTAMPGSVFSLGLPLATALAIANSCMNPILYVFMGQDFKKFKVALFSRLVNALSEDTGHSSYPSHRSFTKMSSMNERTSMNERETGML", "assay": "β-arrestin recruitment assay (chemerin-dependent β-arrestin2 signaling)", "assay_type": "cell-based", "details": "CMKLR1-CHO-β-Arrestin cells, 20 nM chemerin, read-out: β-arrestin IC50 mean ± SEM (n)", "description": "DiscoverX PathHunter® CHO-K1 CMKLR1 β-Arrestin Cells were grown in RPMI lacking phenol red (Gibco, Life Technologies), supplemented with L-glutamine, penicillin-streptomycin, sodium pyruvate, non-essential amino acid, BCS, hygromycin, and G418-sulfate. CMKLR1-CHO-β-Arrestin cells were seeded in 96 well plates at 1 × 10^5 cell/ml- 100 ul/well and incubated overnight at 37 °C, 5% CO2. […] (α-NETA and test compounds were reconstituted in DMSO; final DMSO concentration in each well was 0.1%). After 10 min, 5 ul of recombinant human chemerin (R&D Systems) at a final concentration of 20 nM was added to each well. Plates were incubated for 90 min at 37 °C, 5% CO2. Media was then removed and 50 ul of chemiluminescent substrate (Tropix Gal-Screen, Applied Biosciences) was added. The plate was incubated for 1 hr at RT and luminescence was detected using the SpectraMax M5 plate reader (Molecular Devices). For each independent trial (single replicate dose curves), data was normalized to the maximum signal per compound tested and an IC50 value was generated using GraphPad Prism software. The average IC50 value for n independent trials (as specified in the table) is reported."}, "Cyp2C8": {"biological_target": "T2, Cyp2C8 (Homo sapiens, UniProt P10632)", "T2 construct": "tissue Cyprotex/Evotec AG; host or cells: human liver microsomes", "T2 sequence (P10632 1-490)": "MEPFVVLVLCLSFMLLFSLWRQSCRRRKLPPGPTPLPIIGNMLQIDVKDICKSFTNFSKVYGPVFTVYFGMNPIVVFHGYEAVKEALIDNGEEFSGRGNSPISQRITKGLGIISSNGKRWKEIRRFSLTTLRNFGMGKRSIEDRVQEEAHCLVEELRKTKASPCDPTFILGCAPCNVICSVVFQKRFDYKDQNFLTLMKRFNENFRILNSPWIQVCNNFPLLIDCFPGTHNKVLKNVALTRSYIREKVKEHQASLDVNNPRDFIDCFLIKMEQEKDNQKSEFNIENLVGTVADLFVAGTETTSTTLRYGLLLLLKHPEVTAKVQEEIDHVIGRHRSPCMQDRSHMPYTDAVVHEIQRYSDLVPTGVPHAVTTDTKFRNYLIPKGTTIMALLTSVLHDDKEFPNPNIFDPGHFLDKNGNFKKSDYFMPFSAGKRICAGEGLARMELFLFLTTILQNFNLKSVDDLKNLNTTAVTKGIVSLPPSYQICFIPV", "assay": "Cyp enzyme inhibition in human liver microsomes", "assay_type": "in vitro ADME", "details": "30 min pre-incubation"}, "Cyp enzymes": {"system": "Cyp enzymes", "assay": "Time-dependent (mechanism-based) Cyp inhibition", "assay_type": "in vitro ADME, human", "details": "not shown", "description": "Human liver microsomes were pre-incubated with 7 concentrations (0.1–100 mM, duplicate wells) of α-NETA for 30 min."}, "Cyp2B6": {"biological_target": "T3, Cyp2B6 (Homo sapiens, UniProt P20813)", "T3 construct": "tissue Cyprotex/Evotec AG; host or cells: human liver microsomes", "T3 sequence (P20813 1-491)": "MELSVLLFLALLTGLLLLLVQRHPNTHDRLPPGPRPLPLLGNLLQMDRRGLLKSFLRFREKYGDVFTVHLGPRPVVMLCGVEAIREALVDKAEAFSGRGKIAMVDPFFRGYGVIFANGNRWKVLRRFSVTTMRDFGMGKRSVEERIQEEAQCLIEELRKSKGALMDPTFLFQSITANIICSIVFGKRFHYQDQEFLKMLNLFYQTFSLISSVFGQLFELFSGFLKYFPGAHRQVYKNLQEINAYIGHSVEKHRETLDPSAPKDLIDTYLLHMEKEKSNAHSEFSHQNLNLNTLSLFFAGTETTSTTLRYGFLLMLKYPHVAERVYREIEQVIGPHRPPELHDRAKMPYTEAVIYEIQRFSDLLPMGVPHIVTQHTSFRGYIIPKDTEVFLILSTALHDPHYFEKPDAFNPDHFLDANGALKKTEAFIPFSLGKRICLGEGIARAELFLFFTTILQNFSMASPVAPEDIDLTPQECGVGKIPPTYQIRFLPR", "assay": "Cyp enzyme inhibition in human liver microsomes", "assay_type": "in vitro ADME", "details": "30 min pre-incubation"}, "hERG potassium channel": {"biological_target": "T4, hERG potassium channel (Homo sapiens, UniProt Q12809)", "T4 construct": "host or cells: CHO", "T4 sequence (Q12809 whole entry)": "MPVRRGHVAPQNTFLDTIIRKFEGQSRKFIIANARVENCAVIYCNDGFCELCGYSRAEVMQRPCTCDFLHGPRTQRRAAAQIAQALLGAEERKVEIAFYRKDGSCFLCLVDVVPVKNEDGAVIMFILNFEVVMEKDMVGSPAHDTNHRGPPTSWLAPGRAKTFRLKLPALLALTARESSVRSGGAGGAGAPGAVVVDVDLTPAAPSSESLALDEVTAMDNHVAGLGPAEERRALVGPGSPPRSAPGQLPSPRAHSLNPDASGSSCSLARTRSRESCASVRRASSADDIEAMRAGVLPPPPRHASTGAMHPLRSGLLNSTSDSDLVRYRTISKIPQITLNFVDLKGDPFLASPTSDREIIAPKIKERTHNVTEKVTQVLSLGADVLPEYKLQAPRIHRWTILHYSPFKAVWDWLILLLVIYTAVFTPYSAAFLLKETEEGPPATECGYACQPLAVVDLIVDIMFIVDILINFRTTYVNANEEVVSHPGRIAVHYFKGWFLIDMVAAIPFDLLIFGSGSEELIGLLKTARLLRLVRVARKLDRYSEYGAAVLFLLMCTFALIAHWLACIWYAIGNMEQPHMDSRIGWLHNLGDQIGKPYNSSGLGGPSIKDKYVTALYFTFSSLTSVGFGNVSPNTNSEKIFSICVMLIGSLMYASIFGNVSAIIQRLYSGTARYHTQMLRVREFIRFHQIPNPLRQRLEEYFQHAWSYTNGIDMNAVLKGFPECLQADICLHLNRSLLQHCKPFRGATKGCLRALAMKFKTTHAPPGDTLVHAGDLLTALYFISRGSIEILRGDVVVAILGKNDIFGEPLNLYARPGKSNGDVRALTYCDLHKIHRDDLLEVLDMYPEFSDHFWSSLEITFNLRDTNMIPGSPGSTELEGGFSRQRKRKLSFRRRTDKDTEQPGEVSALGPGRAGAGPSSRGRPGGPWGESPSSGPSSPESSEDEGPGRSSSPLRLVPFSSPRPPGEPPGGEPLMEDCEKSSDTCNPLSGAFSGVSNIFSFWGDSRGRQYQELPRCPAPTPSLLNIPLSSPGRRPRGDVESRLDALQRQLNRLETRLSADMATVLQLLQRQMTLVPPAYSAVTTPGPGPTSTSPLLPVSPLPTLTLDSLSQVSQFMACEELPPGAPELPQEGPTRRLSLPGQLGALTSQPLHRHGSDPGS", "assay": "hERG inhibition, patch-clamp with CHO-hERG transfectants", "assay_type": "cell-based", "details": "hERG tail current, 0.008-25 uM", "description": "A patch-clamp assay with single CHO-hERG cell transfectants were used to quantify potential α-NETA-dependent hERG inhibition (2–3 cells per compound concentration). […] The cell was depolarized, and the hERG tail current was measured, and IC50 determined (Cyprotex/Evotec AG)."}},
  "note": "Read-outs that look alike come from different tables or passages of the source.",
  "data": [
    {"compound": "C[N+](C)(C)CCC(=O)c1cccc2ccccc12.[I-]", "note": "[α-NETA, 2-(α-naphthoyl) ethyltrimethylammonium iodide]", "values": [
      {"measurement": "IC50", "setting": "Cyp2D6", "value": "> 10", "unit": "µM"},
      {"measurement": "mutagenesis in Ames test (histidine revertants)", "setting": "[1]", "value": "did not induce mutagenesis"},
      {"measurement": "IC50", "setting": "CMKLR1; Table 2 tertiary amines", "value": "4.9 ± 1.5", "unit": "µM"},
      {"measurement": "IC50", "setting": "CMKLR1; Table 3 quaternary ammonium salts", "value": "4.9 ± 1.5", "unit": "µM"},
      {"measurement": "IC50", "setting": "Cyp2C8", "value": 1.5, "unit": "µM"},
      {"measurement": "time-dependent (mechanism-based) Cyp inhibition", "setting": "Cyp enzymes", "value": "No time-dependent (mechanism-based) Cyp inhibition was detected"},
      {"measurement": "IC50", "setting": "Cyp2B6", "value": 0.12, "unit": "µM"},
      {"measurement": "IC50", "setting": "hERG potassium channel", "value": 10.4, "unit": "µM"}
    ]}
  ]
}
